# Reference: patent publication US8883745B2, “C—glycolipids with enhanced Th-1 profile” (New York University, priority 2006, dated 2014)
# Columns and labels:
# [1] = test system: IFN-γ; assay: IFN-γ levels in sera upon i.v. glycolipid administration to C57BL/6 mice (ELISA); type: in vivo; parameters: IFN-γ levels, test 1 / IFN-γ levels, test 2 / IFN-γ levels, average / IFN-γ levels, Total / IFN-γ (B6): unit not given here; settings: for IFN-γ/IL-4 (B6): C57BL/6, ratio calculated from Tables 1-6; for IFN-γ levels, average / IFN-γ levels, test 1 / IFN-γ levels, test 2 / IFN-γ levels, Total: C57BL/6, serum; for IFN-γ levels, Total: total over hours 0-72
# Description: (§1) Five- to six-week-old female C57BL/6 mice and BALB/c mice were purchased from Taconic. Each glycolipid was stored at 1 mg/ml in 100% DMSO. Mice were injected intravenously with 1 μg of each glyocolipid diluted in 200 μL sterile phosphate buffered saline (PBS). At indicated time points, sera were collected from each animal, and concentrations of IFN-γ, IL-4, and IL-12 in the sera were evaluated by enzyme-linked immunosorbent assay (ELISA). Serum concentrations of IFN-γ, IL-4, and IL-12 were evaluated using an ELISA kit (eBioscience, San Diego, Calif.). Briefly, 96 well flat-bottom ELISA plates (NUNC) were coated with capture antibody according to the manufacture's recommendation and incubated overnight at 4° C. The plates were washed with PBS+0.05% Tween 20 (PBS-T), then incubated with manufacturer provided blocking solution for 1 hr at room temperature to block non-specific binding sites. After washing with PBS-T, sera diluted 1:10 was added to the wells and incubated for 2 hrs at room temperature. Plates were then incubated at room temperature for 1 hr with biotintylated detection antibody, washed, incubated with avidin conjugated to horse radish peroxidase (HRP) for 30 min at room temperature, washed, and finally incubated with tetramethylbenzidine substrate solution in the dark for 10 minutes at room temperature. The antibodies, avidin-HRP, and substrate solution were all diluted according to the manufacture's recommendation. Reactions were stopped with 2.0N sulfuric acid and the cytokine concentration in each well was determined by comparing the absorbance at 450 nm in each well to known standards. The levels of Th1- and Th2-type cytokines were determined in two different genetic backgrounds, i.e., in C57BL/6 mice and BALB/c mice. The following compounds were administered: A=compound (A-1 trans-conformer), B=compound (A-2), C=compound (A-3), D=compound (A-4), E=compound (A-5), Z=control (PBS alone), CRONY=α-C-GalCer, KRN=α-GalCer, GCK109 (A-1 trans-conformer), GCK151 (A-1 cis-conformer), GCK152 (A-7). The levels of cytokines were measured at 0, 2, 6, 12, 24, 48, and 72 hours after the compound administration. The levels of Th1-type cytokines IFN-γ and IL-12 are summarized in FIGS. 2A-C and 3A-C, respectively. Table 7 provides IFN-γ/IL-4 and IL-12/IL-4 ratios for various compounds, which can be used as indicators of their ability to selectively stimulate Th1-type immune responses.
# [2] = test system: IL-4; assay: IL-4 levels in sera upon i.v. glycolipid administration to C57BL/6 mice (ELISA); type: in vivo; parameters: unit not given here; settings: for IL-4 level, Total: total over hours 0-72
# Description: as §1
smiles,measurement,setting,value
CCCCCCCCCCCCCCCCCC/C=C/CCCCCCCCC(=O)N[C@@H](/C=C/[C@H]1O[C@H](CO)[C@H](O)[C@H](O)[C@H]1O)[C@H](O)[C@H](O)CCCCCCCCCCCCCC [A-1],IFN-γ/IL-4 (B6),[1],12
same,"IFN-γ levels, average",[1]; hour 0,31
same,"IFN-γ levels, test 1",[1]; hour 0,31
same,"IFN-γ levels, test 2",[1]; hour 0,31
same,"IFN-γ levels, average",[1]; hour 2,281
same,"IFN-γ levels, test 1",[1]; hour 2,226
same,"IFN-γ levels, test 2",[1]; hour 2,336
same,"IFN-γ levels, average",[1]; hour 6,1147.5
same,"IFN-γ levels, test 1",[1]; hour 6,1172
same,"IFN-γ levels, test 2",[1]; hour 6,1123
same,"IFN-γ levels, average",[1]; hour 12,4323
same,"IFN-γ levels, test 1",[1]; hour 12,4093
same,"IFN-γ levels, test 2",[1]; hour 12,4553
same,"IFN-γ levels, average",[1]; hour 24,11150
same,"IFN-γ levels, test 1",[1]; hour 24,10000
same,"IFN-γ levels, test 2",[1]; hour 24,12300
same,"IFN-γ levels, average",[1]; hour 48,400.5
same,"IFN-γ levels, test 1",[1]; hour 48,366
same,"IFN-γ levels, test 2",[1]; hour 48,435
same,"IFN-γ levels, average",[1]; hour 72,151
same,"IFN-γ levels, test 1",[1]; hour 72,124
same,"IFN-γ levels, test 2",[1]; hour 72,178
same,"IFN-γ levels, Total",[1],17485
same,"IL-4 level, average",[2]; hour 0,46
same,"IL-4 level, test 1",[2]; hour 0,46
same,"IL-4 level, test 2",[2]; hour 0,46
same,"IL-4 level, average",[2]; hour 2,1088
same,"IL-4 level, test 1",[2]; hour 2,914
same,"IL-4 level, test 2",[2]; hour 2,1262
same,"IL-4 level, average",[2]; hour 6,109
same,"IL-4 level, test 1",[2]; hour 6,90
same,"IL-4 level, test 2",[2]; hour 6,128
same,"IL-4 level, average",[2]; hour 12,55
same,"IL-4 level, test 1",[2]; hour 12,44
same,"IL-4 level, test 2",[2]; hour 12,66
same,"IL-4 level, average",[2]; hour 24,56.5
same,"IL-4 level, test 1",[2]; hour 24,57
same,"IL-4 level, test 2",[2]; hour 24,56
same,"IL-4 level, average",[2]; hour 48,44
same,"IL-4 level, test 1",[2]; hour 48,47
same,"IL-4 level, test 2",[2]; hour 48,41
same,"IL-4 level, average",[2]; hour 72,88
same,"IL-4 level, test 1",[2]; hour 72,61
same,"IL-4 level, test 2",[2]; hour 72,115
same,"IL-4 level, Total",[2],1487
CCCCCCCCCCCCCCCCC/C=C/CCCCCCCCC(=O)N[C@@H](CC[C@H]1O[C@H](CO)[C@H](O)[C@H](O)[C@H]1O)[C@H](O)[C@H](O)CCCCCCCCCCCCCC [A-3],IFN-γ/IL-4 (B6),[1],14
same,"IFN-γ levels, average",[1]; hour 0,31
same,"IFN-γ levels, test 1",[1]; hour 0,31
same,"IFN-γ levels, test 2",[1]; hour 0,31
same,"IFN-γ levels, average",[1]; hour 2,213
same,"IFN-γ levels, test 1",[1]; hour 2,185
same,"IFN-γ levels, test 2",[1]; hour 2,241
same,"IFN-γ levels, average",[1]; hour 6,606
same,"IFN-γ levels, test 1",[1]; hour 6,542
same,"IFN-γ levels, test 2",[1]; hour 6,670
same,"IFN-γ levels, average",[1]; hour 12,2440.5
same,"IFN-γ levels, test 1",[1]; hour 12,2665
same,"IFN-γ levels, test 2",[1]; hour 12,2216
same,"IFN-γ levels, average",[1]; hour 24,9036
same,"IFN-γ levels, test 1",[1]; hour 24,9837
same,"IFN-γ levels, test 2",[1]; hour 24,8235
same,"IFN-γ levels, average",[1]; hour 48,344
same,"IFN-γ levels, test 1",[1]; hour 48,382
same,"IFN-γ levels, test 2",[1]; hour 48,306
same,"IFN-γ levels, average",[1]; hour 72,79.5
same,"IFN-γ levels, test 1",[1]; hour 72,75
same,"IFN-γ levels, test 2",[1]; hour 72,84
same,"IFN-γ levels, Total",[1],12751
same,"IL-4 level, average",[2]; hour 0,46
same,"IL-4 level, test 1",[2]; hour 0,46
same,"IL-4 level, test 2",[2]; hour 0,46
same,"IL-4 level, average",[2]; hour 2,576
same,"IL-4 level, test 1",[2]; hour 2,398
same,"IL-4 level, test 2",[2]; hour 2,754
same,"IL-4 level, average",[2]; hour 6,72.5
same,"IL-4 level, test 1",[2]; hour 6,59
same,"IL-4 level, test 2",[2]; hour 6,86
same,"IL-4 level, average",[2]; hour 12,49
same,"IL-4 level, test 1",[2]; hour 12,43
same,"IL-4 level, test 2",[2]; hour 12,55
same,"IL-4 level, average",[2]; hour 24,57.5
same,"IL-4 level, test 1",[2]; hour 24,49
same,"IL-4 level, test 2",[2]; hour 24,66
same,"IL-4 level, average",[2]; hour 48,54.5
same,"IL-4 level, test 1",[2]; hour 48,54
same,"IL-4 level, test 2",[2]; hour 48,55
same,"IL-4 level, average",[2]; hour 72,58
same,"IL-4 level, test 1",[2]; hour 72,54
same,"IL-4 level, test 2",[2]; hour 72,62
same,"IL-4 level, Total",[2],915
CCCCCCCCCCCCCC[C@@H](O)[C@@H](O)[C@H](CC[C@H]1O[C@H](CO)[C@H](O)[C@H](O)[C@H]1O)NC(=O)CCCCCCCCCCCCCCCCCCCOCCCCC [A-5],IFN-γ/IL-4 (B6),[1],18
same,"IFN-γ levels, average",[1]; hour 0,31
same,"IFN-γ levels, test 1",[1]; hour 0,31
same,"IFN-γ levels, test 2",[1]; hour 0,31
same,"IFN-γ levels, average",[1]; hour 2,112.5
same,"IFN-γ levels, test 1",[1]; hour 2,130
same,"IFN-γ levels, test 2",[1]; hour 2,95
same,"IFN-γ levels, average",[1]; hour 6,929
same,"IFN-γ levels, test 1",[1]; hour 6,930
same,"IFN-γ levels, test 2",[1]; hour 6,928
same,"IFN-γ levels, average",[1]; hour 12,2108
same,"IFN-γ levels, test 1",[1]; hour 12,2215
same,"IFN-γ levels, test 2",[1]; hour 12,2001
same,"IFN-γ levels, average",[1]; hour 24,8196.5
same,"IFN-γ levels, test 1",[1]; hour 24,7680
same,"IFN-γ levels, test 2",[1]; hour 24,8713
same,"IFN-γ levels, average",[1]; hour 48,295
same,"IFN-γ levels, test 1",[1]; hour 48,249
same,"IFN-γ levels, test 2",[1]; hour 48,341
same,"IFN-γ levels, average",[1]; hour 72,102
same,"IFN-γ levels, test 1",[1]; hour 72,101
same,"IFN-γ levels, test 2",[1]; hour 72,103
same,"IFN-γ levels, Total",[1],11775
same,"IL-4 level, average",[2]; hour 0,46
same,"IL-4 level, test 1",[2]; hour 0,46
same,"IL-4 level, test 2",[2]; hour 0,46
same,"IL-4 level, average",[2]; hour 2,308
same,"IL-4 level, test 1",[2]; hour 2,283
same,"IL-4 level, test 2",[2]; hour 2,333
same,"IL-4 level, average",[2]; hour 6,89
same,"IL-4 level, test 1",[2]; hour 6,75
same,"IL-4 level, test 2",[2]; hour 6,103
same,"IL-4 level, average",[2]; hour 12,45
same,"IL-4 level, test 1",[2]; hour 12,42
same,"IL-4 level, test 2",[2]; hour 12,48
same,"IL-4 level, average",[2]; hour 24,50
same,"IL-4 level, test 1",[2]; hour 24,46
same,"IL-4 level, test 2",[2]; hour 24,54
same,"IL-4 level, average",[2]; hour 48,46
same,"IL-4 level, test 1",[2]; hour 48,44
same,"IL-4 level, test 2",[2]; hour 48,48
same,"IL-4 level, average",[2]; hour 72,64.5
same,"IL-4 level, test 1",[2]; hour 72,69
same,"IL-4 level, test 2",[2]; hour 72,60
same,"IL-4 level, Total",[2],649
"CCCCCCCCCCCCCCCCCCCCCCCCCCCCC(=O)N[C@@H](/C=C/[C@H]1O[C@H](CO)[C@H](O)[C@H](O)[C@H]1O)[C@H](O)[C@H](O)CCCCCCCCCCCCCC [A-2, (3S,4S,5R)-1-C-(α-D-galactopyranosyl)-3-(N-nonacosanoylamino)-4,5-nonadec-(1,2-E)-enediol]",IFN-γ/IL-4 (B6),[1],16
same,"IFN-γ levels, average",[1]; hour 0,31
same,"IFN-γ levels, test 1",[1]; hour 0,31
same,"IFN-γ levels, test 2",[1]; hour 0,31
same,"IFN-γ levels, average",[1]; hour 2,138.5
same,"IFN-γ levels, test 1",[1]; hour 2,138
same,"IFN-γ levels, test 2",[1]; hour 2,139
same,"IFN-γ levels, average",[1]; hour 6,944.5
same,"IFN-γ levels, test 1",[1]; hour 6,955
same,"IFN-γ levels, test 2",[1]; hour 6,934
same,"IFN-γ levels, average",[1]; hour 12,2932
same,"IFN-γ levels, test 1",[1]; hour 12,2427
same,"IFN-γ levels, test 2",[1]; hour 12,3437
same,"IFN-γ levels, average",[1]; hour 24,8415
same,"IFN-γ levels, test 1",[1]; hour 24,7023
same,"IFN-γ levels, test 2",[1]; hour 24,9807
same,"IFN-γ levels, average",[1]; hour 48,464
same,"IFN-γ levels, test 1",[1]; hour 48,424
same,"IFN-γ levels, test 2",[1]; hour 48,504
same,"IFN-γ levels, average",[1]; hour 72,100.5
same,"IFN-γ levels, test 1",[1]; hour 72,87
same,"IFN-γ levels, test 2",[1]; hour 72,114
same,"IFN-γ levels, Total",[1],13027
same,"IL-4 level, average",[2]; hour 0,46
same,"IL-4 level, test 1",[2]; hour 0,46
same,"IL-4 level, test 2",[2]; hour 0,46
same,"IL-4 level, average",[2]; hour 2,443
same,"IL-4 level, test 1",[2]; hour 2,286
same,"IL-4 level, test 2",[2]; hour 2,600
same,"IL-4 level, average",[2]; hour 6,110
same,"IL-4 level, test 1",[2]; hour 6,95
same,"IL-4 level, test 2",[2]; hour 6,125
same,"IL-4 level, average",[2]; hour 12,56.5
same,"IL-4 level, test 1",[2]; hour 12,45
same,"IL-4 level, test 2",[2]; hour 12,68
same,"IL-4 level, average",[2]; hour 24,52
same,"IL-4 level, test 1",[2]; hour 24,46
same,"IL-4 level, test 2",[2]; hour 24,58
same,"IL-4 level, average",[2]; hour 48,56
same,"IL-4 level, test 1",[2]; hour 48,60
same,"IL-4 level, test 2",[2]; hour 48,52
same,"IL-4 level, average",[2]; hour 72,61.5
same,"IL-4 level, test 1",[2]; hour 72,59
same,"IL-4 level, test 2",[2]; hour 72,64
same,"IL-4 level, Total",[2],826
